These results are taken from ChEMBL document CHEMBL4673197, “Microwave-assisted green synthesis of bile acid derivatives and evaluation of glucocorticoid receptor binding” (RSC Med Chem, 2021).

Common to all, as to assay type: cell-based
Assay [1] concerns the target T1, Glucocorticoid receptor (Rattus norvegicus) (UniProt P06536).
T1 sequence (whole entry): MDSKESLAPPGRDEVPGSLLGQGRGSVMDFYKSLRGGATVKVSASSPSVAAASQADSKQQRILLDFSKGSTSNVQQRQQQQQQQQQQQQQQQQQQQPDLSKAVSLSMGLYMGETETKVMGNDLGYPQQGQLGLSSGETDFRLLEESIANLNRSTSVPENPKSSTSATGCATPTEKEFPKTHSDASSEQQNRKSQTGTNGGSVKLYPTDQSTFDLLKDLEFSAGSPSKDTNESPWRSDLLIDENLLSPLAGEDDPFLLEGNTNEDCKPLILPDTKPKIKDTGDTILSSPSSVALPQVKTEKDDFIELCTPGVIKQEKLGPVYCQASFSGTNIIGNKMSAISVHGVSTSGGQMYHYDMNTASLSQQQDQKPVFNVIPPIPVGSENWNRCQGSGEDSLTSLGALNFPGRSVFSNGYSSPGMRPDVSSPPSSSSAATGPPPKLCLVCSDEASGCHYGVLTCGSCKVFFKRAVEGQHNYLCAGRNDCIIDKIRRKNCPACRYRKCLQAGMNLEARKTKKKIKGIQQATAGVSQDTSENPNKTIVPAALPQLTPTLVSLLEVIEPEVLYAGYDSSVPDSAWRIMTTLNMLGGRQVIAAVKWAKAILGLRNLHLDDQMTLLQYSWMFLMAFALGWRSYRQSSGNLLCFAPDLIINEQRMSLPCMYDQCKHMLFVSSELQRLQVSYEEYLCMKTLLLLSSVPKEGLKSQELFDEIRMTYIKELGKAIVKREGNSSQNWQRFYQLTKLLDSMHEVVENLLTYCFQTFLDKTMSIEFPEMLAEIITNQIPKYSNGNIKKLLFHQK
In words: Binding affinity to enhanced YFP tagged rat glucocorticoid receptor (497-795)-LBD expressed in Saccharomyces cerevisiae FY250 cells by measuring fluorescence changes incubated at 100 uM for 15 hrs by fluorescence spectroscopy.

Assay [2] addresses T1, Glucocorticoid receptor (Rattus norvegicus). In words: Binding affinity to enhanced YFP tagged rat glucocorticoid receptor (497-795)-LBD expressed in Saccharomyces cerevisiae FY250 cells by measuring increase in fluorescence intensity incubated at 100 uM for 15 hrs by fluorescence microscopy.
Assay [3] shares this target. In words: Binding affinity to enhanced YFP tagged rat glucocorticoid receptor (497-795)-LBD expressed in Saccharomyces cerevisiae FY250 cells by measuring fluorescence changes incubated for 15 hrs by fluorescence spectroscopy.

Activity calls are given as the source filed them. No cut-off for these calls is given here.

Take `C[C@H](CCC(=O)O)[C@H]1CC[C@H]2[C@@H]3CC[C@@H]4CCCC[C@]4(C)[C@H]3CC[C@]12C`: the result in assay [1] and in assay [2] was Active.
Consider `C[C@H](CCC(=O)Nc1ccccc1)[C@H]1CC[C@H]2[C@@H]3CC[C@@H]4C[C@H](O)CC[C@]4(C)[C@H]3C[C@H](O)[C@]12C`, for which the outcome in assay [1] and in assay [2] was Active.
Regarding `C[C@]12C=CC(=O)C=C1CC[C@@H]1[C@@H]2[C@@H](O)C[C@@]2(C)[C@H]1CC[C@]2(O)C(=O)CO`, the Activity entry in assay [3] was “Dose-dependent effect”. Moreover, the result in assay [2] was Active.
